Results on 103 compounds are retold here after PubChem BioAssay AID1996.

In brackets after ≈: the same amount, converted by molar mass.

The conditions of the data set: buffer; pH 7.4; 200.0 µM.
As to `N#Cc1cnc(Nc2ccc(F)cc2)nc1N`, the kinetic solubility – broadly, the concentration staying in solution when a stock, usually in DMSO, is diluted into the medium – came out at 4.7 µg/mL (≈ 20.5 µM).
In the case of `N#Cc1ccsc1NC(=O)CCS(=O)(=O)c1ccccc1`, the solubility (kinetic) was 41.7 µg/mL (≈ 130 µM). This solubility kinetic is about 8.9-fold higher than that of the compound before.
Compound `Cc1ccc2cc(C#N)c(N3CCN(C(=O)c4ccccc4)CC3)nc2c1` displayed a kinetic solubility of 4.1 µg/mL (≈ 11.5 µM).
As for `COCC(C)n1c(C)cc(C(=O)COC(=O)c2cccn2C)c1C` (stereo not drawn), the kinetic solubility is over 49.9 µg/mL.
For `O=C(CNCc1ccc(F)cc1)Nc1ccccc1[N+](=O)[O-]`, the solubility (kinetic) is 32.7 µg/mL (≈ 108 µM).
`O=C(O)CCC(=O)NN1C(=O)c2ccccc2NC1c1ccc(F)cc1` (stereo not drawn) had a kinetic solubility of over 53.6 µg/mL.
Regarding `COc1ccc(C2N(c3ccccc3)C(=O)C2(F)F)cc1OC` (stereo not drawn), the kinetic solubility is 36.2 µg/mL (≈ 113 µM).
For the compound `CCOc1cc(N2CCOCC2)c(OCC)cc1NC(=O)COC(=O)c1ccc(Cl)nc1`, the kinetic solubility came to 5.2 µg/mL (≈ 11.2 µM).
The compound `CCOC(=O)c1sc(NC(=O)c2ccc(=O)[nH]c2)nc1C` gave a solubility (kinetic) of 7.3 µg/mL (≈ 23.8 µM). The solubility kinetic values of the last two compounds are within 1.5-fold of each other.
For `Cc1ccc(C(=O)Nc2nccc(C)n2)cc1` the value was 21.9 µg/mL (≈ 96.4 µM); for `O=C(N/N=C/c1cccnc1)c1cccs1`, over 34.7 µg/mL.
As to `CCN(c1ccccc1)S(=O)(=O)c1ccc(C(=O)NCc2ccco2)cc1`, the kinetic solubility stood at 32 µg/mL (≈ 83.2 µM).
Compound `CC1(C)C2CCC1(C)C(OC(=O)CNc1ccccc1)C2` (stereo not drawn) yielded a solubility (kinetic) of 4.2 µg/mL (≈ 14.6 µM).
For `Cc1ccc(S(=O)(=O)C2(C(=O)NC3CCCCC3C)CC2)cc1` (stereo not drawn) the value was 37.3 µg/mL (≈ 111 µM); for `CCn1c(CCc2ccccc2)nnc1SCC(N)=O`, over 43.6 µg/mL.
Compound `CCc1nc(NCCO)c(C#N)c2c1CCCC2` returned a solubility (kinetic) of 35.5 µg/mL (≈ 145 µM).
For `CCOC(=O)C1=C(c2ccccc2)NC(=O)NC1c1cccc(OC)c1OC` (stereo not drawn) the value was over 57.4 µg/mL; for `CN1CCN(C(=O)NCC23CC4CC(CC(C4)C2)C3)CC1`, over 43.7 µg/mL.
For `C=C(C)c1cccc(C(C)(C)NC(=O)N2CCC(C(N)=O)CC2)c1` the value was over 49.4 µg/mL; for `COc1ccc2[nH]cc(C(=O)C(=O)N3CCCCC3)c2c1`, over 42.9 µg/mL.
In turn, `O=C(Nc1cccc(F)c1)N1CCCCCC1` yielded a kinetic solubility of over 35.4 µg/mL.
For `S=C(Nc1ccccc1)N1CCN(Cc2ccccc2)CC1` the value was over 46.7 µg/mL.
Compound `CCNC(=S)N1CCC(C(=O)c2ccc(Cl)cc2)CC1` gave a kinetic solubility of over 46.6 µg/mL.
On to `Cc1ccccc1CC1SC(N)=NC1=O` (stereo not drawn), for which the solubility (kinetic) was 21.8 µg/mL (≈ 99 µM).
`Cc1ccc(S(=O)(=O)NCCNC(=O)c2ccc(C)nc2)cc1`: the kinetic solubility is over 50 µg/mL.
Turning to `CCOc1ccc(CC(=O)Nc2nccs2)cc1OCC`, the kinetic solubility came out at 31.7 µg/mL (≈ 103 µM).
For `CCCCn1c(=S)[nH]c2cc(S(=O)(=O)N3CCOCC3)ccc21` the value was over 53.3 µg/mL; for `CN(C)C(=O)COc1ncnc2sc(-c3ccccc3)cc12`, 13.9 µg/mL (≈ 44.4 µM).
With `Nc1cc(=O)[nH]c(SCC(=O)Nc2cccnc2Cl)n1`, the kinetic solubility was over 46.8 µg/mL.
`O=CNCc1nc2ccccc2n1CCc1ccccc1` showed a kinetic solubility of over 41.9 µg/mL.
The compound `O=C(CN1CCOCC1)NN=C(c1ccccc1)c1ccccc1` registered a solubility (kinetic) of over 48.5 µg/mL.
For `O=C(O)c1cc(S(=O)(=O)N2CCN(S(=O)(=O)c3ccc4ccccc4c3)CC2)ccc1Br` the value was 77 µg/mL (≈ 143 µM); for `CN1C(=O)N(c2ccc(Cl)cc2)C(C)(O)CC1(C)C` (stereo not drawn), over 42.4 µg/mL.
As to `Cc1cccc(NC(=O)c2ccc3c(c2)OCCO3)c1`, the solubility (kinetic) amounted to 35.5 µg/mL (≈ 132 µM).
In the case of `Cc1nnc(SCc2cc(=O)[nH]c(=S)[nH]2)s1`, the solubility (kinetic) was over 40.9 µg/mL.
Turning to `Cc1ccc(SCC(=O)NC2CCCCCC2)cc1`, the kinetic solubility is over 41.6 µg/mL.
`COc1cc([N+](=O)[O-])ccc1NC(=O)CSc1nccn1C` registered a kinetic solubility of 42.5 µg/mL (≈ 132 µM).
In the case of `CC(=O)Oc1c(C(C)C)cc(N(C(C)=O)c2ccccc2)cc1C(C)C`, the kinetic solubility was determined as 41.5 µg/mL (≈ 117 µM).
Regarding `O=C(NCC(c1ccc(F)cc1)N1CCOCC1)c1ccc(OCc2ccccc2)cc1` (stereo not drawn), the kinetic solubility amounted to 5.8 µg/mL (≈ 13.3 µM).
Compound `COc1ccc2c(c1)C(=O)Nc1cc(Cl)ccc1N2` returned a kinetic solubility of 15.6 µg/mL (≈ 56.8 µM). This solubility kinetic is about 2.7-fold higher than that of the compound before.
In the case of `Nc1ccc(-c2ncc(-c3ccccc3)o2)cc1`, the kinetic solubility is 4.3 µg/mL (≈ 18.2 µM). This solubility kinetic is about 3.6-fold lower than that of the compound before.
In turn, `CCOc1ccc(C(=O)CC(C(=O)O)N2CCCCC2)cc1` (stereo not drawn) returned a solubility (kinetic) of over 45.8 µg/mL.
In the case of `COc1ccc(-c2csc(-c3[nH]cnc3N)n2)cc1`, the solubility (kinetic) is 18.1 µg/mL (≈ 66.5 µM).
The compound `S=C(NCCc1ccccc1)N1CCN(C2CCCCC2)CC1` came in with a solubility (kinetic) of 16.6 µg/mL (≈ 50.1 µM).
For `COc1ccc(N=Cc2cc(Cl)ccc2O)cc1Cl` the value was 18 µg/mL (≈ 60.8 µM); for `CCOC(=O)c1cc(NC(=O)Nc2cc(C)ccn2)c(C)nc1C`, 0.3 µg/mL (≈ 0.914 µM); for `Cc1cc(C)c(S(=O)(=O)NC2CC2)c(C)c1`, over 35.9 µg/mL.
Compound `O=C(CSc1cccc(C(F)(F)F)c1)Nc1ccc(N2CCOCC2)cc1` registered a solubility (kinetic) of 7.7 µg/mL (≈ 19.4 µM).
As for `CC(=O)Nc1ccc2nc(-c3ccco3)[nH]c2c1`, the solubility (kinetic) is over 36.2 µg/mL.
The compound `CC(=O)N(c1cccc(Br)c1)c1nc(C)cc(C)c1C#N` showed a solubility (kinetic) of over 51.6 µg/mL.
`COc1ccc(-n2c(SCC(=O)N(C)C3CCS(=O)(=O)C3)nc3ccc(O)cc3c2=O)cc1OC` (stereo not drawn) came in with a solubility (kinetic) of 35.3 µg/mL (≈ 67.9 µM).
With `O=C(CCC(=O)c1ccccc1)NCCOc1ccccc1`, the kinetic solubility was over 44.6 µg/mL.
For `CCC(=O)Oc1ccc(NC(=O)c2ccco2)cc1` the value was over 38.9 µg/mL; for `O=[N+]([O-])c1ccccc1S(=O)(=O)NC1CCCCCCC1`, 20.1 µg/mL (≈ 64.3 µM).
For `C=CCn1c(CCNC(=O)c2ccco2)nc2ccccc21` the value was over 44.3 µg/mL; for `O=C(NC1CCCC1)C1CCN(C(=O)NCc2ccccc2)CC1`, over 49.4 µg/mL.
Compound `CC(C)c1ccc(CNC(=O)C(=O)NCC2CCCO2)cc1` (stereo not drawn) displayed a solubility (kinetic) of 28.5 µg/mL (≈ 93.6 µM).
For `Cc1cc(C(=O)OCC(=O)Nc2ccccc2C(F)(F)F)on1` the value was over 49.2 µg/mL; for `O=c1c([N+](=O)[O-])c(N2CCCC2)c2ccccc2n1-c1ccccc1`, 46.7 µg/mL (≈ 139 µM).
For `Cc1ccc(CNS(=O)(=O)c2ccc(C(F)(F)F)cc2)n1C` the value was 30.6 µg/mL (≈ 92.1 µM); for `O=C(/C=C/c1ccc(Cl)cc1)Nc1nccs1`, 1.1 µg/mL (≈ 4.16 µM).
For `O=C(Nc1ccc2c(c1)C(=O)OC2)c1ccc(C(F)(F)F)cc1` the value was under 0.7 µg/mL.
Consider `CC(=O)Nc1ccc(C(=O)N2CCCc3ccccc32)cc1`, for which the solubility (kinetic) was over 44.2 µg/mL.
As to `O=C(CN1c2cccc3cccc(c23)S1(=O)=O)NCc1ccc(F)cc1`, the kinetic solubility is 27.4 µg/mL (≈ 74 µM).
In turn, `Cc1ccccc1NC(=O)/C(C#N)=C/c1ccc[nH]1` had a kinetic solubility of 2.9 µg/mL (≈ 11.5 µM). This solubility kinetic is about 9.4-fold lower than that of the compound before.
For `COc1ccc(CCC(C)NCC(C)c2ccccc2)cc1` (stereo not drawn) the value was over 44.6 µg/mL.
For `O=C(Nc1nc(-c2ccncc2)cs1)c1ccc(F)cc1` the value was under 0.2 µg/mL; for `O=C(Cc1ccccc1)OCC(=O)c1cccc([N+](=O)[O-])c1`, over 44.9 µg/mL.
`Cc1ccccc1NC(=O)CN1CCOCC1.Cl` yielded a kinetic solubility of over 40.6 µg/mL.
On to `Cc1c(Cl)c(=O)oc2cc(OCC(=O)N3CCCC(C)C3)ccc12` (stereo not drawn), for which the solubility (kinetic) was 38 µg/mL (≈ 109 µM).
On to `Cc1ccc(-c2csc(-c3cc(C)on3)n2)cc1`, for which the solubility (kinetic) is under 0.3 µg/mL.
`COC(=O)[C@H](CCSC)NC(=O)Nc1cccc(Br)c1` displayed a kinetic solubility of over 54.2 µg/mL.
For `Cc1cccc(N2CCN(S(=O)(=O)c3ccc(Cl)nc3)CC2C)c1` (stereo not drawn) the value was 3.6 µg/mL (≈ 9.84 µM).
`O=C(COC(=O)c1ccc[nH]c1=O)Nc1ccc2c(c1)OC(F)(F)O2` gave a solubility (kinetic) of over 52.8 µg/mL.
Regarding `CCCNC(=O)c1c(O)c2cccc3c2n(c1=O)CCC3`, the solubility (kinetic) worked out at 0.5 µg/mL (≈ 1.75 µM).
In turn, `O=C(/C=C/c1cccc([N+](=O)[O-])c1)N1CC[C@@]2(O)CCCC[C@H]2C1` gave a kinetic solubility of over 49.6 µg/mL.
`CC(C)NC(=O)Cn1cc(C(=O)c2ccccc2)c2ccccc21` showed a kinetic solubility of 1.7 µg/mL (≈ 5.31 µM).
`O=S(=O)(c1ccc(Cl)cc1Cl)N1CCCC1c1cccnc1` (stereo not drawn) returned a solubility (kinetic) of over 53.6 µg/mL.
For `Cc1ccc(/C=N/NC(=O)c2cccnc2)s1` the value was over 36.8 µg/mL; for `Cc1cc(C)c(S(=O)(=O)Nc2ccc3[nH]c(=O)[nH]c3c2)c(C)c1`, 2.8 µg/mL (≈ 8.45 µM); for `Cc1ccc(OCC(=O)NCCNC(=O)c2cnccn2)cc1`, 40.9 µg/mL (≈ 130 µM).
`COc1ccc2c(=O)c(C(=O)NCCc3ccccc3)c[nH]c2c1` returned a solubility (kinetic) of 5.2 µg/mL (≈ 16.1 µM).
As for `COCCN(CCOC)C(=O)Nc1ccc(Cl)cc1`, the solubility (kinetic) is over 43 µg/mL.
In the case of `CC1CCCCC12NC(=O)N(Cc1cc(=O)n3ccsc3n1)C2=O` (stereo not drawn), the kinetic solubility is over 52 µg/mL.
Compound `CC1CCCN(CC(=O)N2c3ccccc3Sc3ccccc32)C1` (stereo not drawn) registered a solubility (kinetic) of 31.7 µg/mL (≈ 93.7 µM).
As to `CCOc1ncccc1C(=O)NC(C)CCc1ccccc1` (stereo not drawn), the kinetic solubility turned out to be 41 µg/mL (≈ 137 µM).
Regarding `O=C(c1ccccc1)C(C(=O)N1CCCCC1)n1ccccc1=O` (stereo not drawn), the solubility (kinetic) was over 48.7 µg/mL.
With `COc1ccc(NC(=O)c2cc(=O)[nH]c3ccccc23)cc1`, the solubility (kinetic) came to 2.1 µg/mL (≈ 7.14 µM).
Turning to `CCOc1ccc(NC(=O)c2cc(Cl)nc3ccccc23)cc1`, the kinetic solubility was found to be 0.4 µg/mL (≈ 1.22 µM). This solubility kinetic is about 5.2-fold lower than that of the compound before.
For `CCOC(=O)N1CCN(S(=O)(=O)c2ccc(Cl)cc2)CC1` the value was 48.4 µg/mL (≈ 145 µM).
For the compound `CCc1ccc2oc(C(=O)N3CCN(C)CC3)cc(=O)c2c1`, the kinetic solubility was over 45.1 µg/mL.
With `Cn1c(=O)c(C(=O)NCc2ccc(Cl)cc2)c(O)c2ccccc21`, the kinetic solubility is under 0.4 µg/mL.
Consider `CCN(CC)c1ccc(NC(=O)C2CCCC2)cc1`, for which the kinetic solubility is 35.4 µg/mL (≈ 136 µM).
Regarding `Cc1cccc(C(=O)NCCNC(=O)c2ccccn2)c1`, the kinetic solubility is over 42.5 µg/mL.
`CCN(CC)C(=O)CSc1nnc(SC(C)C(=O)NC2CC2)s1` (stereo not drawn) had a kinetic solubility of over 56.2 µg/mL.
Turning to `COc1cc(NC(=O)COC(=O)c2cc(S(=O)(=O)N3CCOCC3)ccc2F)cc(OC)c1`, the kinetic solubility is 34.2 µg/mL (≈ 70.9 µM).
Compound `CCOc1ccccc1CN1CCN(Cc2ccon2)CC1CCO` (stereo not drawn) gave a solubility (kinetic) of 48.9 µg/mL (≈ 142 µM).
Compound `Cc1nccn1CC(=O)N/N=C/c1cc(Br)cs1` displayed a kinetic solubility of over 49.1 µg/mL.
For the compound `CN(C)c1nc(C#N)nc(N(C)C)n1`, the kinetic solubility was determined as 22.3 µg/mL (≈ 116 µM).
The compound `CC(=O)N1CCN(c2ncnc3ccccc23)CC1` yielded a kinetic solubility of over 38.4 µg/mL.
`Cc1cc(NC(=O)Cc2ccsc2)ccc1Br` had a solubility (kinetic) of 4.5 µg/mL (≈ 14.5 µM).
In turn, `CC(C#N)Sc1ncnc2sc(-c3ccccc3)cc12` (stereo not drawn) registered a solubility (kinetic) of 0.8 µg/mL (≈ 2.69 µM).
Turning to `CCOc1ccc(S(=O)(=O)NCCCn2ccnc2)cc1`, the kinetic solubility stood at 45.4 µg/mL (≈ 147 µM).
